This is an account of results in patent US11433082B2, “Composition containing sulfoalkyl ether cyclodextrin and latanoprost” (CyDex Pharmaceuticals, Inc., priority 2008, dated 2022).

Holding throughout (format): physicochemical
The nature of data set [1]: Photolytic (UV-B) stability of aqueous compositions of latanoprost. The settings on record: SAE-CD 1% or 5% w/v, pH 6.7, UV-B, compared to a solution excluding SAE-CD. As for the experimental part:
Latanoprost was measured in weighing boats (size 4×12×4 mm) by using a microbalance. The boats were put into 50 mL volumetric flask and 100 mM isotonic phosphate buffer (pH 6.7) was added to the flask. The flask was shaken, sonicated and vortexed over an hour. The solution was filtered through a PVDF filter with 20 mL of plastic syringe. SBE-β-CD 0, 1, 5% w/v and BAK 0.02% w/v were measured into each 10 mL volumetric flask and the filtered latanoprost solution were added to them. The flasks were shaken for a few minutes at R.T, and then these solutions and XALATAN® were put into quartz vessels. The Rayonet photochemical chamber reactor was used for the irradiation with RMR-3000A lamp. At various time points, the latanoprost in the aliquots was assayed by HPLC, and the solution pH's were measured before and after the light irradiation.

The nature of data set [2]: Phase solubility of latanoprost in the presence of SBE-β-CD (CAPTISOL). The settings on record: for pH: filtered supernatant. As for the experimental part:
SAE-CD increases the aqueous solubility of latanoprost. The phase solubility curve (FIG. 1) for latanoprost in the presence of SBE-β-CD (CAPTISOL®) was obtained according to Example 5. The intrinsic solubility of latanoprost in water, and in the absence of any solubilizing agent, is about 40 μg/mL. The invention provides a method of increasing the solubility of latanoprost in an aqueous composition, the method comprising including SAE-CD and latanoprost in the aqueous composition, wherein the molar ratio of SAE-CD to latanoprost, pH, concentration of SAE-CD, and concentration of latanoprost are as defined herein. In some embodiments, the SAE-CD increases the aqueous solubility of latanoprost by at least 10-fold.
Aqueous compositions containing latanoprost and different amounts of SBE-β-CD were prepared. Latanoprost (1 mg was measured into aluminum weighing boats (size 4×12×4 mm) by using a microbalance. The boats were put into the amber glass vials (Kimble vial, 1 dram) with Teflon-lined screw caps. Using a Rainin pipetman, 2.0 mL of SBE-β-CD test solution (0, 5, 10, or 20% w/v) were added to each vial. Each vial was capped, vortexed, placed on a rocker platform and gently mixed at room temperature. After 24 hours, the test vials were removed from the rocker platform, the solutions were centrifuged at 2500 rpm for 5 min, and the supernatants were filtered through 0.22 micron Millipore PVDF Millex-GV filters and the pH measured. The latanoprost in the aliquots was assayed by HPLC.

Data set [3] is described as follows: Hydrolytic stability of aqueous compositions of latanoprost at 60° C. The following applies: compared to a solution excluding SAE-CD. As for the experimental part:
Latanoprost was measured in weighting boats (size 4×12×4 mm) by using a microbalance. The boats were put into 50 mL volumetric flask and 10 mM or 100 mM isotonic phosphate buffer (pH 5.5, 6.7 and 8.0) was added to the flask. The flask was shaken, sonicated and vortexed over an hour. The solution was filtered through a PVDF filter with 20 mL of plastic syringe. SBE-β-CyD 0, 1, 2.5, 5% w/v or BAK 0.02% were measured into 6-dram amber vials, and the filtered latanoprost solution (12 mL) was added to each vials. The vials were shaken for a few minutes at R.T, and then there were kept at 60° C. At various time points, the latanoprost in the aliquots was assayed by HPLC and the solution pH's were measured.

Read-outs that look alike come from different tables or passages of the source.

In the case of `CC(C)OC(=O)CCC/C=C\C[C@@H]1[C@@H](CC[C@@H](O)CCc2ccccc2)[C@H](O)C[C@@H]1O` [Latanoprost, isopropyl (Z)-7-[(1R,2R,3R,5S)-3,5-dihydroxy-2-[(3R)3-hydroxy-5-phenylpentyl]-cyclopentyl]hept-5-enoate], the “photolytic degradation of latanoprost” value in data set [1] is reported as “sufficient to suppress photolytic degradation”. The solubility at 24 h in data set [2] (aqueous 5% w/v SBE-β-CD (CAPTISOL) solution, pH 7.41, aqueous with cosolvent or surfactant or cyclodextrin, thermodynamic from solid, with 5% w/v CAPTISOL, room temperature, 24 hours, read-out: Latanoprost (solubility)) is more than 500 µg/mL; in data set [2] (aqueous 10% w/v SBE-β-CD (CAPTISOL) solution, pH 6.93, aqueous with cosolvent or surfactant or cyclodextrin, thermodynamic from solid, with 10% w/v CAPTISOL, room temperature, 24 hours, read-out: Latanoprost (solubility)), more than 500 µg/mL; in data set [2] (aqueous SBE-β-CD (SAE-CD, CAPTISOL) solution, aqueous with cosolvent or surfactant or cyclodextrin, thermodynamic from solid, solutions containing at least 5% w/v of SAE-CD, read-out: solubility of latanoprost), more than 500 µg/mL; in data set [2] (aqueous test solution without SBE-β-CD (0% w/v), pH 8.57, water, thermodynamic from solid, without CAPTISOL, room temperature, 24 hours, read-out: Latanoprost (solubility)), 40 µg/mL. For the same molecule, the pH in data set [2] (with 5% w/v CAPTISOL) came to 7.41; in data set [2] (with 10% w/v CAPTISOL), 6.93; in data set [2] (without CAPTISOL), 8.57. The solubility in data set [2] (water, thermodynamic from solid, in the absence of any solubilizing agent, read-out: intrinsic solubility of latanoprost in water) is approximately 40 µg/mL. Besides, the “hydrolytic degradation of latanoprost” value in data set [3] (SAE-CD 1% or 5% w/v, pH 5.5 and 6.7, 60° C.) is given as “sufficient to suppress hydrolytic degradation”; in data set [3] (SAE-CD, pH 8, 60° C.) it was “substantially reduce hydrolytic degradation”.

In general, solubility refers to the dissolved amount per volume that the medium holds.
